# Experimental data: patent US20210386668A1, “Cyclodextrin for use in the treatment and prevention of late phase bronchoconstriction in allergen-induced asthma” (Universite de Liege, priority 2020, published 2021)
# Tested on: mild to moderate asthmatic patients sensitized to HDM
# Assay: Phase 2a proof of concept clinical trial, HDM allergen challenge (FEV1)
# Assay type: in vivo, human
# Description: Seventeen mild to moderate asthmatics sensitized to HDM were included in a double blind crossover study comprising allergen challenges with HDM. […] These experiments show a significant effect of HPBCD inhalation on the prevention of allergen-induced FEV1 decrease during the late phase.
# Clinical trial protocols have been approved by an independent ethical committee (CHU Liege—University of Liege) in accordance with GCPs, Declaration of Helsinki and European regulations (EudraCT). All participants gave written informed consent before any study-specific procedure. For the phase 1 clinical trial, 8 healthy subjects (4 women and 4 men) from 18 to 40 years were recruited and enrolled in the study at the University Hospital of Liege (Belgium). Patients were randomized and received first the placebo (NaCl 0.9%) or HPBCD at 2.5 mM and 8 days after, the opposite treatment. After 1 week, all patients received HPBCD at 15 mM. One month later, all patients received HPBCD at 15 mM during 5 consecutive days. Apyrogenic and sterile HPBCD powder was diluted with NaCl 0.9% before inhalation (8 ml) with an ultrasonic nebulizer (Devilbiss 2000). General symptoms, asthma scores (ACQ), dyspnea, chest Rx, clinical biology, ECG, vital signs, spirometry, NO, sputum (induced by NaCl 4.5%) were analyzed after treatment periods. The second clinical trial (phase 2a-proof of concept) was a double-blinded, cross-over, placebo-controlled study. 17 mild to moderate asthmatic patients were included in the study at two different sites (University Hospital of Liege and University Hospital Erasme) in Belgium. Characterization visits consisted of dyspnea symptoms recording, ECG, chest Rx, clinical biology, spirometry and vital signs analysis. PD20 (provocative dose that causes a 20% fall in FEV1 from the saline alone value) to inhaled allergen was determined. […] The PD20 of the allergen was calculated from a cumulative dose-response curve, as described previously, Cataldo et al., Matrix metalloproteinase-9, but not tissue inhibitor of matrix metalloproteinase-1, increases in the sputum from allergic asthmatic patients after allergen challenge, Chest. 2002; 122(5):1553-9. All […] received a cumulative concentration of Dermatophagoides pteronyssinus with a reactivity index of 6. After 14 days wash-out period, patients were randomly divided into two groups and received either HPBCD 15 mM or Placebo (NaCl 0.9%) by inhalation (ultrasonic nebulizer (Devilbiss 2000)) twice daily. At the end of this treatment period, lung function (FEV1) was analyzed after allergen (HDM) challenge under the supervision of experienced respiratory clinical physiologists. FEV1 was measured after allergen inhalation challenge at 5, 15, 30, 60, 120, 180, 240, 300 and 360 min. After 28 days wash-out period, patients received the opposite treatment for another 14 days and the FEV1 following allergen challenge was evaluated. All clinical parameters were examined after each treatment period. The endpoint of this proof of concept study was changes in FEV1 over 0-360 min post-allergen challenges. FEV1 in early phase (0-60 min) and late phase (180-360 min) were expressed as: area under the FEV1-versus-time curve (AUC), maximum percentage fall and average percentage fall (calculated by dividing the area under the curve of the percentage fall in FEV1 by the duration of the response period). One patient who received placebo had negative maximum FEV1 decrease and negative average percentage fall in FEV1. These negative values were truncated to 0. Patients had access to […] (salbutamol 100 μg) throughout the study as an «as needed» treatment. […]
compound,measurement,setting,value
"CC(O)COC[C@H]1O[C@@H]2O[C@H]3[C@H](O)[C@@H](O)[C@@H](O[C@H]4[C@H](O)[C@@H](O)[C@@H](O[C@H]5[C@H](O)[C@@H](O)[C@@H](O[C@H]6[C@H](O)[C@@H](O)[C@@H](O[C@H]7[C@H](O)[C@@H](O)[C@@H](O[C@H]8[C@H](O)[C@@H](O)[C@@H](O[C@H]1[C@H](O)[C@H]2O)O[C@@H]8COCC(C)O)O[C@@H]7COCC(C)O)O[C@@H]6COCC(C)O)O[C@@H]5COCC(C)O)O[C@@H]4COCC(C)O)O[C@@H]3COCC(C)O (stereo partly drawn) [HPBCD, 2-hydroxypropyl-beta-cyclodextrin]",decrease in FEV1 after HDM challenge (AUC 0-360 min),"HPBCD 15 mM inhalation twice daily vs placebo, FIG. 5B",lower decrease in FEV1
same,maximum FEV1 decrease after HDM challenge,"HPBCD 15 mM vs placebo, FIG. 5D",significantly lower
same,average percentage FEV1 decrease after HDM challenge,"HPBCD 15 mM vs placebo, FIG. 5E",significantly lower
same,"hematology, serum biochemistry, urinalysis, vital signs, ECG tests and chest X-ray",between treatment groups,No significant changes
same,FEV1 decrease during the early bronchoconstriction phase,"early phase 0-60 min, HPBCD vs placebo",No significant differences
same,prevention of FEV1 decrease during the late phase reaction (AUC),"late phase 180-360 min, HPBCD 15 mM vs placebo, FIG. 5C",predominant effect
